Experimental data reported in publication PMC11087268, “A folate inhibitor exploits metabolic differences in Pseudomonas aeruginosa for narrow-spectrum targeting” (Nature Microbiology, 2024).
Values joined by “and” are separate entries in the source; they are usually repeats but may differ in a detail not shown here. Equal values may be shown once.

Legend:
[1] = system: P. aeruginosa PA14 nfxB mutants; assay: MIC against fluorofolin-resistant PA14 nfxB mutants in liquid culture; assay type: cell-based; details: Pseudomonas aeruginosa
Protocol: (§1) Overnight cultures were diluted 1:150 in LB broth and added to a 96-well plate. Antibiotics were serially diluted 1:2 and added to columns of the 96-well plate and grown at 37 °C with continuous shaking. Cell growth was measured using optical density at 600 nm (OD600). MIC assays were performed in either BioTek Synergy HT or Tecan InfiniteM200 Pro microplate readers.
Resistant mutants were maintained as a frozen stock.

Maximum tolerated dose = details: female, mouse, in vivo, sc; CD-1 mice, subcutaneous
Description: For P. aeruginosa thigh infection model and maximum tolerated dose (MTD) studies, care and handling of female 5–6-week-old CD-1 conformed to Institutional Animal Care and Use Committee (IACUC) policies as carried out at the University of North Texas Health Science Center (Fort Worth, Texas) under UNTHSC IACUC-approved protocol nos. IACUC-2021-0003 and IACUC-2020-0039. Rodents were fed either base chow (Envigo) or base diet supplemented with 1.8 g kg^−1 thymidine (Sigma T9250) starting at 2 days before infection. All procedures were conducted in accordance with the UNTHSC IACUC-approved protocol. Animals were housed in rooms undergoing 10–15 air changes per hour. Air provided to the animal rooms was controlled for temperature and humidity and is fully monitored 24 h a day. Air pressure was balanced according to room use. Lighting was controlled in individual rooms by automatic timers with a standard 12 h on, 12 h off cycle.
MTD was determined by administration of compounds at increasing dosage until the maximum dose before adverse reactions were observed. Doses were increased in a stepwise manner from 1 mg kg^−1 to 5, 10, 25 and 50 mg kg^−1. […] The maximum tolerated dose of fluorofolin was determined to be 25 mg kg^−1 administered subcutaneously. MTD was evaluated by the UNTHSC.

S. epidermidis = assay: Growth with or without TMI supplementation and fluorofolin, S. epidermidis; assay type: cell-based, Staphylococcus epidermidis; details: fluorofolin 2X MIC
Protocol: (§2) Where listed, growth media were prepared according manufacturer recommendations: LB broth and LB broth supplemented with 0.3 mM thymine (BD Biosciences 244610, Alfa Aesar A15879), 0.3 mM methionine (Sigma-Aldrich M9625), 0.3 mM inosine (EMD Millipore 4060), cation-adjusted Mueller–Hinton II broth (CAMHB) (BD 212322) or 0.3 mM thymidine (Sigma-Aldrich T1895), Gutnick minimal media (1.0 g l^−1 K2SO4, 13.5 g l^−1 K2HPO4, 4.7 g l^−1 KH2PO4, 0.1 g l^−1 MgSO4·7H2O, 10 mM NH4Cl as a nitrogen source and 0.4% w/v glucose as a carbon source)[65].
(§3) Extended Data Fig. 3 TMI supplementation can also rescue other species from fluorofolin DHFR inhibition. […] (f) P. aeruginosa PA14 or E. coli lptd4213 treated with fluorofolin 50 μg/mL in the presence or absence of 0.3 mM thymidine. (g) E. coli lptd4213 treated with fluorofolin 50 μg/mL and SMX (78.1 μg/mL) in the presence or absence of 0.3 mM thymidine or 0.3 mM TMI supplementation, Curves represent average optical at 600 nm (OD600) of 2 biological replicates. Means are shown. Source data

[2] = system: Staphylococcus epidermidis EGM-206; assay: MIC against S. epidermidis EGM-206 in LB broth; assay type: cell-based; details: EGM206, 16 h, 37 °C, OD600
Protocol: as §1

human DHFR = target: T1, human DHFR (Homo sapiens, UniProt P00374); assay: Human DHFR in vitro assay; assay type: biochemical; details: for Normalized activity to no drug control: human DHFR
T1 construct: purchased R&D Systems 8456-DR
T1 sequence (P00374 1-187): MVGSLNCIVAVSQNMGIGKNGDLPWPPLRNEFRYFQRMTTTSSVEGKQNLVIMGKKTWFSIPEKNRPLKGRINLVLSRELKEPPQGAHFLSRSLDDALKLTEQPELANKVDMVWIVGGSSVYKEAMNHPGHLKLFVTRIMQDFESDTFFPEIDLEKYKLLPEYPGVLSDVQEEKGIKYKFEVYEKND

E. coli MG1655 = assay: Growth competition assay, c.f.u. of E. coli MG1655; assay type: cell-based, Escherichia coli; details: for E.coli MG1655 CFU/mL: Panel C
Protocol: Cultures of each species were grown separately as well as being mixed 1:1. […] The number of colonies on Pseudomonas Selection Agar plates is reported as the c.f.u. ml^−1 of P. aeruginosa. To calculate c.f.u.s ml^−1 of E. coli MG1655, c.f.u.s ml^−1 were determined from LB agar plates and the c.f.u.s ml^−1 of P. aeruginosa were subtracted from these values.

[3] = system: Pseudomonas aeruginosa PA01; assay: MIC against P. aeruginosa PA01 in LB broth; assay type: cell-based; details: 16 h, 37 °C, OD600
Protocol: as §1

[4] = system: P. aeruginosa PA14 folate metabolism (dUMP, AICAR, GAR); assay: Metabolomics (LC–MS) of treated PA14; assay type: cell-based, Pseudomonas aeruginosa; details: PA14, 15 min
Protocol: Metabolites were extracted by vacuum filtering 15 ml of treated cells using 0.45 μm HNWP Millipore nylon membranes and placing the filters into an ice-cold quenching solution of 40:40:20 methanol:acetonitrile:H2O. Extracts were kept on dry ice for 1 h and centrifuged at 16,000 g for 1 h at 4 °C. The supernatant was kept at -80 °C until mass spectrometry analysis. Liquid chromatography-mass spectrometry (LC-MS) analysis of metabolites was performed on an Orbitrap Exploris 240 mass spectrometer coupled with hydrophilic interaction liquid chromatography (HILIC)[68]. […] Waters 196006724), with a gradient of solvent A (95 vol. % H2O, 5 vol. % acetonitrile, with 20 mM ammonium acetate and 20 mM ammonium hydroxide, pH 9.4) and solvent B (acetonitrile). Flow rate was 0.15 ml min^-1 and column temperature was set at 25 °C. […] Raw mass spectrometry data were converted to mzXML format by MSConvert (ProteoWizard). Pick-peaking was done on […].0.8.0, Elucidata).

[5] = system: P. aeruginosa PA14 mexS L46F mutant; assay: MIC against fluorofolin-resistant PA14 mexS L46F mutant; assay type: cell-based; details: Pseudomonas aeruginosa
Protocol: as §1
Single colonies were picked and inoculated into fresh LB broth. This process was repeated for a total of ten passages. At each passage, the MIC was recalculated and compared to a culture that had not been previously exposed to fluorofolin, which was also grown as a control to confirm antibiotic potency. Cells from each passage were stored as a frozen stock.

E. coli lptD4213 = assay: Growth of E. coli lptd4213 with fluorofolin (with or without SMX) and thymidine or TMI; assay type: cell-based, Escherichia coli; details: fluorofolin 50 μg/mL, 0.3 mM thymidine
Protocol: as §2, §3

[6] = 2× MIC (fluorofolin 6.3, TMP 250 μg ml^−1), one value per replicate

Nc1nc(N)c2c(ccc3c2ccn3Cc2ccnc(F)c2)n1 [fluorofolin]
MIC [1]: > 100 µg/mL
MTD (Maximum tolerated dose): 25 mg/kg
rescue of growth inhibition by TMI supplementation (S. epidermidis): could also be rescued from fluorofolin growth inhibition by TMI supplementation
MIC [2]: 0.312 µg/mL
Normalized activity to no drug control (human DHFR; Fluorofolin 0.12207 nM): 1.039
Normalized activity to no drug control (human DHFR; Fluorofolin 0.488281 nM): 1.039
Normalized activity to no drug control (human DHFR; Fluorofolin 1.95312 nM, replicates _1, _2): 0.9215 and 1.02
Normalized activity to no drug control (human DHFR; Fluorofolin 7.8125 nM, replicates _1, _2): 0.5724 and 0.64
Normalized activity to no drug control (human DHFR; Fluorofolin 31.25 nM, replicates _1, _2): 0.387 and 0.4828
Normalized activity to no drug control (human DHFR; Fluorofolin 125 nM, replicates _1, _2): 0.2567 and 0.2221
Normalized activity to no drug control (human DHFR; Fluorofolin 500 nM, replicates _1, _2): 0.1373 and 0.1034
Normalized activity to no drug control (human DHFR; Fluorofolin 2000 nM, replicates _1, _2): 0.03994 and 0.01531
IC50 (human DHFR; purified human DHFR): 14 ± 4 nM
growth in co-culture with TMI supplementation (E. coli MG1655; PA14 : E. coli MG1655 1:1, 50 μg ml^−1 fluorofolin, selective plating): but not E. coli
E.coli MG1655 CFU/mL (E. coli MG1655; Fluorofolin): 10 CFU/mL
E.coli MG1655 CFU/mL (E. coli MG1655; Fluorofolin + TMI): 1050000 CFU/mL and 1500000 CFU/mL and 1350000 CFU/mL
MIC [3]: 6.25 µg/mL
change of AICAR and dUMP ([4]; 2× MIC): significant upregulation
Normalized Ion Counts AICAR [4, 6]: 667209 and 798823 and 294672
Normalized Ion Counts GAR [4, 6]: 62925.5 and 135659 and 3851.78
Normalized Ion Counts dUMP [4, 6]: 5000000 and 3000000 and 2000000
MIC [5]: 62.5 µg/mL
rescue of growth inhibition by thymidine supplementation alone (E. coli lptD4213): Rescue from fluorofolin inhibition was also shown
